One assay concerns NCI-H358 (K-Ras G12C). Kind of assay: CellTiter-Glo cell viability assay, NCI-H358. Type of assay: cell-based, human. The conditions noted are these: Homo sapiens, NCI-H358, 120 h, NCI-H358, 5-day treatment; class symbols; read-out: Additional H358 Cell Viability assay data (K-Ras G12C, IC50). Put shortly:
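Viability measured by CellTiter-Glo luminescence on day 5 following direct addition of compound to plated cells. Values expressed as percent of mean DMSO signal; curves fitted with a four-parameter logistic model.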
In general terms: ATP-based viability assays read luminescence as a measure of living cells.

Another assay concerns the target K-Ras G12C (Homo sapiens (Human), UniProt P01116+P62937, G12C). Kind of assay: Ras-Raf (BRAF RBD) disruption / FRET / MOA assay, KRAS G12C. Type of assay: biochemical. The conditions noted are these: KRAS G12C; Ras-Raf disruption/FRET/MOA assay; read-out: IC50* KRAS G12C FRET data. Put shortly:
(§1)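 Ternary complex formation (Ras–compound–cyclophilin A) displacing BRAF RBD, monitored by TR-FRET. Three hours at 25° C with compound (top 30 μM final), then 1.5 h with the labelled antibodies. Lower ratio than DMSO indicates disruption; IC50 reported.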

Another assay deals with KRAS G12D (Homo sapiens (Human), UniProt P01116+P62937, G12D). Put plainly: Ras-Raf (BRAF RBD) disruption / FRET / MOA assay, KRAS G12D. Type of assay: biochemical. The conditions noted are these: Ras-Raf disruption/FRET/MOA assay; class symbols; read-out: KRAS G12D FRET data IC50. Put shortly:
as §1

The target in the next assay is KRAS G12V (Homo sapiens (Human), UniProt P01116+P62937, G12V). Put plainly: Ras-Raf (BRAF RBD) disruption / FRET / MOA assay, KRAS G12V. Type of assay: biochemical. The settings on record: read-out: IC50* KRAS G12V FRET data. Put shortly:
as §1

The target of another assay is NRAS G12C (Homo sapiens (Human), UniProt P01111+P62937, G12C). Kind of assay: Ras-Raf (BRAF RBD) disruption / FRET / MOA assay, NRAS G12C. The assay is classed as biochemical. Put shortly:
as §1

A further assay deals with NRAS Q61K (Homo sapiens (Human), UniProt P01111+P62937, Q61K). Kind of assay: Ras-Raf (BRAF RBD) disruption / FRET / MOA assay, NRAS Q61K. The assay is classed as biochemical. The settings on record: NRAS Q61K; Ras-Raf disruption/FRET/MOA assay; read-out: IC50* NRAS Q61K FRET data. Put shortly:
(§2)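 Compounds were tested as a 10-point 3-fold dilution series from 30 μM final for their ability to drive ternary complex formation between nucleotide-loaded Ras and cyclophilin A, displacing the BRAF RBD. After 3 h at 25° C., anti-His Eu-W1024 (10 nM) and anti-GST allophycocyanin (50 nM) were added for 1.5 h. A TR-FRET ratio decrease versus DMSO gave IC50.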

The target of another assay is NRAS WT (Homo sapiens (Human), UniProt P01111+P62937). Kind of assay: Ras-Raf (BRAF RBD) disruption / FRET / MOA assay, NRAS WT. The assay is classed as biochemical. The settings on record: read-out: IC50* NRAS WT FRET data. Put shortly:
as §2

Where [1] appears, read: read-out: IC50* NRAS G12C FRET data.

Where two headings read alike, the source gives them in different places.

Chain of K-Ras G12C (P01116-2 other isoform, or with tags, fused parts or gaps G12C): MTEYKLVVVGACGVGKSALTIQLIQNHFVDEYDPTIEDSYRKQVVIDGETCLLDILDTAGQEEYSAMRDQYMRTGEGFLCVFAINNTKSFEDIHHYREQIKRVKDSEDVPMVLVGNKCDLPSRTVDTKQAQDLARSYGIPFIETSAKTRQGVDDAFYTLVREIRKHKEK
Chain of K-Ras G12C (P62937 whole entry): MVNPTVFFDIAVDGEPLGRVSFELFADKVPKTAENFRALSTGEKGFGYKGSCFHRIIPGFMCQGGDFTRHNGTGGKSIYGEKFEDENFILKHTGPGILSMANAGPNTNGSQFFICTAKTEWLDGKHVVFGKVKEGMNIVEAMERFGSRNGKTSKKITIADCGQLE
Chain of NRAS G12C (P01111 whole entry G12C): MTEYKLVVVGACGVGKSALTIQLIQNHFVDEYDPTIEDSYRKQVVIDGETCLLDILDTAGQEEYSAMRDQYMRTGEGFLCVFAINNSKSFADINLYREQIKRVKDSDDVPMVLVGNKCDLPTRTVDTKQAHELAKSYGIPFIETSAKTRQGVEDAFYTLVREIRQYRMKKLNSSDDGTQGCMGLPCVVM
Chain of NRAS G12C (P62937 whole entry): as the sequence (P62937 whole entry) above
Chain of KRAS G12V (P01116-2 other isoform, or with tags, fused parts or gaps G12V): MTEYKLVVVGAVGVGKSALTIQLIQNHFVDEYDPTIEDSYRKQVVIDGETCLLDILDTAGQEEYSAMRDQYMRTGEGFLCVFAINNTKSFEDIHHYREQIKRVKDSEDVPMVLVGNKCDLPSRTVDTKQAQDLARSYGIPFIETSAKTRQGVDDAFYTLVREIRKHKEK
Chain of KRAS G12V (P62937 whole entry): as the sequence (P62937 whole entry) above
Chain of NRAS WT (P01111 whole entry): as the sequence (P01111 whole entry G12C) above, with C12G counted along it
Chain of NRAS WT (P62937 whole entry): as the sequence (P62937 whole entry) above
Chain of KRAS G12D (P01116-2 other isoform, or with tags, fused parts or gaps G12D): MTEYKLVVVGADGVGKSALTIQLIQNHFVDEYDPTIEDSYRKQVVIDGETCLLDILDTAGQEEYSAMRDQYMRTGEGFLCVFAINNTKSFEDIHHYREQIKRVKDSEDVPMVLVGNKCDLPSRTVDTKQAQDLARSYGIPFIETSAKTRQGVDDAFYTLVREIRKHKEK
Chain of KRAS G12D (P62937 whole entry): as the sequence (P62937 whole entry) above
Chain of NRAS Q61K (P01111 whole entry Q61K): as the sequence (P01111 whole entry G12C) above, with C12G, Q61K counted along it
Chain of NRAS Q61K (P62937 whole entry): as the sequence (P62937 whole entry) above

Consider `CCn1c(-c2cccnc2[C@H](C)OC)c2c3cc(ccc31)-c1csc(n1)C[C@H](NC(=O)[C@H](C(C)C)N(C)C(=O)N1CCC3(CC1)CN(C(=O)/C=C/CN1CCOCC1)C3)C(=O)N1CCC[C@H](N1)C(=O)OCC(C)(C)C2` (atropisomer, axis not shown) [Example A669], for which the IC50 with NCI-H358 (K-Ras G12C) was in the range of 10 to 100 nM; at K-Ras G12C, 10 to 100 nM; on KRAS G12D, 100 to 1000 nM; on KRAS G12V it was 100 to 1000 nM; at NRAS G12C (setting [1]), 10 to 100 nM; at NRAS Q61K, 10 to 100 nM. Moreover, the IC50 on NRAS WT lay within 10 to 100 nM.

Turning to `C=CC(=O)N1CC[C@H](C(=O)N(C)[C@H](C(=O)N[C@H]2Cc3cc(O)cc(c3)-c3ccc4c(c3)c(c(-c3cncc5c3[C@@H](OC)CC5)n4CC)CC(C)(C)COC(=O)[C@@H]3CCCN(N3)C2=O)C(C)C)C1` [Example A275], the 50% inhibitory concentration (IC50) is below 10 nM in the assay on NCI-H358 (K-Ras G12C); 10 to 100 nM on K-Ras G12C; 100 to 1000 nM on KRAS G12D; 10 to 100 nM on KRAS G12V; 10 to 100 nM on NRAS G12C (setting [1]); 100 to 1000 nM at NRAS Q61K. Further, the concentration for half-maximal inhibition (IC50) on NRAS WT was in the range of 10 to 100 nM.

Consider `C=CC(=O)N(C)[C@@H]1CCCN(C(=O)N(C)[C@H](C(=O)N[C@H]2Cc3nc(cs3)-c3ccc4c(c3)c(c(-c3cccnc3[C@H](C)OC)n4CC)CC(C)(C)COC(=O)[C@@H]3CCCN(N3)C2=O)C(C)C)C1` (atropisomer, axis not shown) [Example A382], for which the IC50 in the assay on NCI-H358 (K-Ras G12C) is below 10 nM; on K-Ras G12C, 10 to 100 nM; at KRAS G12D, 100 to 1000 nM; at KRAS G12V, 100 to 1000 nM; on NRAS G12C (setting [1]), 10 to 100 nM; at NRAS Q61K, 10 to 100 nM. The IC50 at NRAS WT is 10 to 100 nM.

On to `C=CC(=O)N1CCO[C@@]2(CCN(C(=O)N(C)[C@H](C(=O)N[C@H]3Cc4nc(cs4)-c4ccc5c(c4)c(c(-c4cccnc4[C@H](C)OC)n5CC(F)(F)F)CC(C)(C)COC(=O)[C@@H]4CCCN(N4)C3=O)C(C)C)C2)C1` (atropisomer, axis not shown) [Example A594], for which the IC50 with NCI-H358 (K-Ras G12C) is below 10 nM; at K-Ras G12C, 10 to 100 nM; on KRAS G12D, 100 to 1000 nM; on KRAS G12V, 100 to 1000 nM; against NRAS G12C (IC50* NRAS G12C FRET data), 10 to 100 nM; on NRAS Q61K, 10 to 100 nM. In addition, the IC50 on NRAS WT lay in the range of 10 to 100 nM.

Take `C=CC(=O)N1C[C@@H]2CN(C(=O)N(C)[C@H](C(=O)N[C@H]3Cc4nc(cs4)-c4ccc5c(c4)c(c(-c4cccnc4[C@H](C)OC)n5CC)CC(C)(C)COC(=O)[C@@H]4CCCN(N4)C3=O)C(C)C)C[C@@H]2C1` (atropisomer, axis not shown) [Example A389]: the IC50 with NCI-H358 (K-Ras G12C) is below 10 nM; at K-Ras G12C, 10 to 100 nM; at KRAS G12D, 100 to 1000 nM; at KRAS G12V it was 10 to 100 nM; on NRAS G12C (setting [1]), 10 to 100 nM; on NRAS Q61K, 10 to 100 nM. For the same compound, the IC50 on NRAS WT was 10 to 100 nM.

`CCn1c(-c2cccnc2[C@H](C)OC)c2c3cc(ccc31)-c1csc(n1)C[C@H](NC(=O)[C@H](C(C)C)N(C)C(=O)N1CCC3(CC1)CN(C(=O)/C=C/CN1CCCCC1)C3)C(=O)N1CCC[C@H](N1)C(=O)OCC(C)(C)C2` (atropisomer, axis not shown) [Example A670]: the IC50 fell in the range of 10 to 100 nM with NCI-H358 (K-Ras G12C); 100 to 1000 nM on K-Ras G12C; 1000 to 10000 nM at KRAS G12D; 100 to 1000 nM at KRAS G12V; 100 to 1000 nM at NRAS G12C (setting [1]); 100 to 1000 nM at NRAS Q61K. In addition, the IC50 on NRAS WT was in the range of 100 to 1000 nM.

With `C=CC(=O)N1CCC2(CC1)CCN(C(=O)N(C)[C@H](C(=O)N[C@H]1Cc3nc(cs3)-c3ccc4c(c3)c(c(-c3cccnc3[C@H](C)OC)n4CC)CC(C)(C)COC(=O)[C@@H]3CCCN(N3)C1=O)C(C)C)CC2` (atropisomer, axis not shown) [Example A697], the IC50 is 10 to 100 nM in the assay with NCI-H358 (K-Ras G12C); 10 to 100 nM at K-Ras G12C; 100 to 1000 nM at KRAS G12D; 100 to 1000 nM on KRAS G12V; 10 to 100 nM at NRAS G12C (setting [1]); 10 to 100 nM at NRAS Q61K. In addition, the IC50 on NRAS WT lay in the range of 10 to 100 nM.

For `C=C(C)C(=O)N1CC2(CCN(C(=O)N(C)[C@H](C(=O)N[C@H]3Cc4nc(cs4)-c4ccc5c(c4)c(c(-c4cccnc4[C@H](C)OC)n5CC)CC(C)(C)COC(=O)[C@@H]4CCCN(N4)C3=O)C(C)C)CC2)C1` (atropisomer, axis not shown) [Example A651], the IC50 lay in the range of 10 to 100 nM in the assay with NCI-H358 (K-Ras G12C); 10 to 100 nM at K-Ras G12C; 100 to 1000 nM on KRAS G12D; 100 to 1000 nM at KRAS G12V; 10 to 100 nM on NRAS G12C (setting [1]); 10 to 100 nM at NRAS Q61K. For the same compound, the IC50 at NRAS WT is 100 to 1000 nM.

Take `C=CC(=O)NCCN1CCN(C(=O)N(C)[C@H](C(=O)N[C@H]2Cc3nc(cs3)-c3ccc4c(c3)c(c(-c3cccnc3[C@H](C)OC)n4CC)CC(C)(C)COC(=O)[C@@H]3CCCN(N3)C2=O)C(C)C)CC1` (atropisomer, axis not shown) [Example A582]: the IC50 in the assay with NCI-H358 (K-Ras G12C) was 10 to 100 nM; on K-Ras G12C, 100 to 1000 nM; at KRAS G12D, 1000 to 10000 nM; at KRAS G12V it was 100 to 1000 nM; on NRAS G12C (setting [1]), 10 to 100 nM; at NRAS Q61K it was 10 to 100 nM. Also, the IC50 at NRAS WT was 100 to 1000 nM.

Turning to `C=CC(=O)N1CCN(C(=O)N(C)[C@H](C(=O)N[C@H]2Cc3nc(cs3)-c3ccc4c(c3)c(c(-c3cccnc3[C@H](C)OC)n4CC(F)(F)F)CC(C)(C)COC(=O)[C@@H]3CCCN(N3)C2=O)C(C)C)CC12CC2` (atropisomer, axis not shown) [Example A679], the 50% inhibitory concentration (IC50) with NCI-H358 (K-Ras G12C) lay in the range of 10 to 100 nM; at K-Ras G12C it was 10 to 100 nM; on KRAS G12D, 100 to 1000 nM; on KRAS G12V, 10 to 100 nM; on NRAS G12C (setting [1]) it was 10 to 100 nM; on NRAS Q61K it was 10 to 100 nM. For the same compound, the IC50 at NRAS WT lay within 10 to 100 nM.

Take `CCn1c(-c2cccnc2[C@H](C)OC)c2c3cc(ccc31)-c1cccc(c1)C[C@H](NC(=O)[C@@H](CO[C@@H]1CCN(C(=O)C#CC(C)(C)N(C)C)C1)C(C)C)C(=O)N1CCC[C@H](N1)C(=O)OCC(C)(C)C2` (atropisomer, axis not shown) [Example A584]: the IC50 in the assay with NCI-H358 (K-Ras G12C) is below 10 nM; on K-Ras G12C, 10 to 100 nM; at KRAS G12D, above 10000 nM; on KRAS G12V, 1000 to 10000 nM; at NRAS G12C (setting [1]), 10 to 100 nM; on NRAS Q61K it was above 10000 nM. Besides, the IC50 at NRAS WT fell in the range of 1000 to 10000 nM.

Consider `C=CC(=O)N1CC[C@@H]2[C@H]1CN2C(=O)N(C)[C@H](C(=O)N[C@H]1Cc2nc(cs2)-c2ccc3c(c2)c(c(-c2cccnc2[C@H](C)OC)n3CC)CC(C)(C)COC(=O)[C@@H]2CCCN(N2)C1=O)C(C)C` (atropisomer, axis not shown) [Example A546], for which the IC50 is below 10 nM in the assay on NCI-H358 (K-Ras G12C); 100 to 1000 nM at K-Ras G12C; 1000 to 10000 nM on KRAS G12D; 100 to 1000 nM on KRAS G12V; 100 to 1000 nM on NRAS G12C (setting [1]); 100 to 1000 nM at NRAS Q61K. Also, the IC50 on NRAS WT fell in the range of 100 to 1000 nM.

As for `C=CC(=O)N1CCO[C@H]2CN(C(=O)N(C)[C@H](C(=O)N[C@H]3Cc4nc(cs4)-c4ccc5c(c4)c(c(-c4cccnc4[C@H](C)OC)n5CC)CC(C)(C)COC(=O)[C@@H]4CCCN(N4)C3=O)C(C)C)C[C@@H]21` (atropisomer, axis not shown) [Example A544], the IC50 in the assay on NCI-H358 (K-Ras G12C) was below 10 nM; on K-Ras G12C, below 10 nM; at KRAS G12D, 1000 to 10000 nM; on KRAS G12V it was 100 to 1000 nM; at NRAS G12C (setting [1]) it was below 10 nM; on NRAS Q61K, 10 to 100 nM. For the same compound, the IC50 on NRAS WT lay within 100 to 1000 nM.

For orientation: IC50 means the concentration at which inhibition is half-maximal.

(Values after patent US11566007B2, “Ras inhibitors” (Revolution Medicines, Inc., priority 2019, dated 2023).)
